The target of series [1] is T1, HMGA2-DNA interactions (Mus musculus, UniProt P52927).
T1 construct: made in house
T1 sequence (P52927 2-108 limits assumed): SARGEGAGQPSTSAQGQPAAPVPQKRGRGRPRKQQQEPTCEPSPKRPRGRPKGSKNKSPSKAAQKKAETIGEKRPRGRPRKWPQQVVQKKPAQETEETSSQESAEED
The series can be described thus: LANCE TR-FRET secondary assay of HMGA2 binding to FL814. On the set-up: species or system mammalian; concentration or dose not given beside the values. The note with it: cherry picked primary hits. The method, then:
In this study, we also developed a LANCE time-resolved fluorescence energy transfer (TR-FRET) assay as a secondary assay for our screening. The His-tagged HMGA2 and biotinylated oligomer FL814 were linked to Europium-labeled anti-6 × His antibody and APC-labeled streptavidin, respectively. A series of DNA binding studies were performed to determine the optimal conditions for the secondary Assay (Fig. S2). After these experiments, 12.5 nM of FL814 and 62.5 nM of HMGA2 were chosen for the assay, which is the same for the primary assay. The assay tolerated up to 0.25% DMSO without any significant change in signal (Fig. S2c). For a counterscreen assay to exclude those compounds that nonspecifically bind to the protein surface, an AlphaScreen assay of H4 peptide binding to bromodomain-containing protein 4 (BRD4) was adopted (Fig. S2e). Since we are looking for compounds with anti-metastasis or anti-obesity activities, compounds with high levels of cytotoxicity are undesirable. […] Furthermore, potential DNA-binding compounds, i.e., DNA intercalators, minor groove binders, and DNA alkylating agents, can be identified by analyzing their chemical structures and will be excluded as well.
Using a Labcyte Echo 555 acoustic dispenser 5 nL of DMSO were added to columns 1–4 and 45–48 of a white 1536 well plate, while 5 nL of 2 mM compounds in DMSO were added to columns 5–44. Using a Beckman BioRAPTR FRD bulk reagent dispenser 1 µL of assay buffer (10 mM Tris, 300 mM NaCl and 0.005% Tween 20) was added to columns 1 and 2. Next, 1 µL of assay buffer containing 125 nM HMGA2 was added to columns 3–48 with a Beckman BioRAPTR FRD bulk reagent dispenser. Finally, 1 µL of assay buffer containing 25 nM FL814 was added to every well of the plate using a Beckman BioRAPTR FRD bulk reagent dispenser. The plate was then centrifuged at 200 × g for 1 min. After 30 min at room temperature 1 µL of assay buffer containing 250 nM LANCE Ultra ULight-anti-6xHIS and 1 µL of assay buffer containing 12 nM LANCE Eu-W1024 Streptavidin was dispensed into every well using a Beckman BioRAPTR FRD bulk reagent dispenser. The plates were then centrifuged at 200 × g for 1 min. After 1 h at room temperature the plates were read on a Perkin Elmer Envision multimode plate reader in TR-FRET mode (excitation @340 nm, first emission at @665 nm, second emission at 615 nm).
For orientation: Time-resolved FRET reads energy transfer from a long-lived donor to a nearby acceptor.

For series [2], the target named is T1, HMGA2-DNA interactions. In words: Protein-DNA interaction ELISA (PDI-ELISA) assay. Format: binding, mammalian. The following applies: inhibition of HMGA2-DNA interactions, PDI-ELISA. An excerpt:
The PDI-ELSA assays were described previously[33] and used to determine the inhibition IC50 against HMGA2-DNA interactions. The apparent inhibitory IC50 values were obtained using the following equation: y=min+(max-min/1+10^((x-logIC50)×Hillslope) , where x, y, max, and min represent the inhibitor’s concentration, the inhibition level, the maximum inhibition value, and the minimum inhibition value, respectively.
(An ELISA detects its analyte on a solid surface through an enzyme-linked reagent.)

In the next series the target is T2, HMGA2 (Mus musculus, UniProt P52927).
T2 construct: made in house
T2 sequence (P52927 2-108 limits assumed): T1 sequence (P52927 2-108 limits assumed)
The series can be described thus: Isothermal titration calorimetry (ITC), titration into HMGA2. The class given is binding, mammalian. The following applies: for HMGA2 Binding site: number of sites. The method, then:
ITC experiments were conducted using a VP-ITC titration calorimeter (MicroCal, Inc., Northampton, MA) interfaced to a PC. Origin 7.0, supplied by the manufacturer was used for data acquisition. […] The heat liberated or absorbed is observed as a peak corresponding to the power required keeping the sample and reference cells at identical temperatures. The peak produced during the injection is converted to heat output by integration and corrected for cell volume and sample concentration. […] The net enthalpy for the titration reaction was determined by subtraction of the component heats of dilution.
For orientation: ITC needs no label: the signal is the heat of the interaction.

A further series relates to BTSC#30p. In words: Growth curves (CellTiter), BTSC#30p. The note with it: up to 200 μM. The class given is cell-based. The method, then:
BTSC#83 and BTSC#30p and their culture conditions have been described. For growth curves, suspension cultures were mechanically disaggregated and filtered through 37 µm filters (StemCell Technologies, Vancouver, Canada) in order to obtain bona fide single-cell suspension. […] Cell growth was assayed at the indicated time using the CellTiter Assay System (Promega). The growth conditions of 8505c anaplastic thyroid carcinoma cells and mouse Embryonic Fibroblasts (MEFs) knock-out for HMGA1, HMGA2, and HMGA1/A2 double mutant have been described previously[42],[64]. P values were calculated by using two-way ANOVA followed by Sidak’s multiple comparison test.

The test system of series [3] is anaplastic thyroid carcinoma cell line 8505c. The series can be described thus: ID2 mRNA expression in 8505c cells. Format: cell-based, human. The note with it: 200 and 400 µM. An excerpt:
The role of HMGA1 and HMGA2 in regulating ID2 transcription was confirmed by analyzing its expression in mouse embryonic fibroblasts (MEFs) knock-out for HMGA1, HMGA2, and the A1/A2 double mutant, respectively. […] We identified two AT-rich regions, hereafter indicated as “region A” and “region B”, in the human ID2 promoter, containing the HMGA2 consensus sequence[26] (Table S2) for our ChIP experiments. Due to availability, the high proliferation rate, and the expression of HMGA proteins, the anaplastic thyroid carcinoma cell line 8505c was used.
The single-cell suspension was obtained by mechanical disaggregation of the spheres and RNA was extracted 48 h later, by using Direct-zol RNA MiniPrep (Zymo Research). One μg of RNA was retrotranscribed, by using QuantiTect® Reverse Transcription Kit (Qiagen) and qRT-PCR was performed as described. The 2^–ΔΔCt formula was used to calculate the differential gene expression.

The conditions of series [4]: no reference given; cited from earlier work.

In general, IC50 refers to the concentration that gives 50% inhibition. On to `Cc1ccc(C(=O)Nc2ccc(S(=O)(=O)O)c3cc(S(=O)(=O)O)cc(S(=O)(=O)O)c23)cc1NC(=O)c1cccc(NC(=O)Nc2cccc(C(=O)Nc3cc(C(=O)Nc4ccc(S(=O)(=O)O)c5cc(S(=O)(=O)O)cc(S(=O)(=O)O)c45)ccc3C)c2)c1` [suramin], for which the “inhibition of HMGA2-DNA interactions” value on HMGA2-DNA interactions [1] is listed as ≥ 50%. This compound came in with a half-maximal inhibitory concentration (IC50) at HMGA2-DNA interactions [2] of 2.78 ± 0.1 µM. Also, at HMGA2 (first type of binding sites), the “–TΔS” value is given as 5.56 kcal/mol. In addition, the “HMGA2 Binding site” value at HMGA2 (first type) is listed as “three”; on HMGA2 (first type, listed as Suramin), 2.81; on HMGA2 (second type) it was “two”; on HMGA2 (second type, listed as Suramin), 2. For the same compound, the “− TΔS” value on HMGA2 (second type of binding sites) stood at 0.24 kcal/mol. In addition, at HMGA2 (second type of binding sites, read-out: HMGA2 Ka (M^−1) (converted)), the Kd was 23 µM. Moreover, the “total of suramin binding sites on HMGA2” value on HMGA2 (two types, confirmed by mass spectrometry) is “five”. In the series with BTSC#30p, the cell growth entry was “did not significantly affect the cell growth”. For the same compound, the “mRNA expression level of ID2” value in series [3] is “significantly decreased”. The oral bioavailability result in series [4] is given as “not orally bioavailable”.

The record behind these values is article PMC7606612, “Identification of HMGA2 inhibitors by AlphaScreen-based ultra-high-throughput screening assays” (Scientific Reports, 2020).
